In BindingDB's records for doi:10.1016/0014-2999(88)90158-6 (Pharmakologisches Institut, 1988):

Assays:
Adenosine receptor A2a = Adenosine receptor A2a (Homo sapiens, UniProt P29274)
Adenosine receptor A1 = target: T1, Adenosine receptor A1 (Rattus norvegicus, UniProt P25099)
T1 sequence (P25099 whole entry): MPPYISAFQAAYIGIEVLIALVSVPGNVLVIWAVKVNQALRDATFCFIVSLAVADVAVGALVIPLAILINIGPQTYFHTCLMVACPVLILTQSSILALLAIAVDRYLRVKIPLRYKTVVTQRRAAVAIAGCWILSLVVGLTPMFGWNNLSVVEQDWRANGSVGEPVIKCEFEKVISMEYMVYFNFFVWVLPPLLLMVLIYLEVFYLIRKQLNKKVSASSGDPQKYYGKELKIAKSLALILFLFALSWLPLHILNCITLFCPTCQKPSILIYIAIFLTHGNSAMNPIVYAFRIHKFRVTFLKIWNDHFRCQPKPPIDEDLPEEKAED

Adenosine receptor A2a, sequence (P29274 whole entry): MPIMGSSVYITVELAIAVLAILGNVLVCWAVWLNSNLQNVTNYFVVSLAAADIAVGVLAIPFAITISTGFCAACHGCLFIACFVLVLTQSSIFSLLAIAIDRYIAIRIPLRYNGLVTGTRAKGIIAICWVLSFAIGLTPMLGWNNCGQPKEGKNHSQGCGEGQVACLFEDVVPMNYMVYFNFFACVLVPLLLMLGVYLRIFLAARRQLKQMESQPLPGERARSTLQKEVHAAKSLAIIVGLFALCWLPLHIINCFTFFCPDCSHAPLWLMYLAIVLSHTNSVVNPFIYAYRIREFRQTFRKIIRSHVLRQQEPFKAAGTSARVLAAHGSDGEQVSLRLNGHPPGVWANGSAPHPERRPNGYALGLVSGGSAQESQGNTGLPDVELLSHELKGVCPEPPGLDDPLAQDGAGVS

In the case of `OC[C@H]1CC[C@H](n2cnc3c(NC4CCCCC4)ncnc32)O1` [alpha-ddCHA], the Ki (Adenosine receptor A2a) is reported as > 10 µM.
In the case of `OC[C@@H]1CC[C@H](n2cnc3c(NC4CCCCC4)ncnc32)O1` [ddCHA], the Ki (Adenosine receptor A2a) is reported as > 10 µM and the Ki (Adenosine receptor A1) is reported as 4.8 µM.
